A value given as a limit tells only on which side of the number the result lay.

This note sets out measurements from patent US11957687B2 (REGENERON PHARMACEUTICALS, INC., priority 2019, dated 2024).

The target in the experiment is HSD17B13 (Homo sapiens (Human), UniProt Q7Z5P4). As to the kind of experiment: HSD17B13 enzymatic inhibition assay (150 nM or 50 nM HSD17B13). The experiment is classed as biochemical. The conditions noted are these: 50 nM HSD17B13; read-out: Inhibition of 50 nM of HSD17B13 IC50.
Chain of HSD17B13 (Q7Z5P4 other isoform, or with tags, fused parts or gaps): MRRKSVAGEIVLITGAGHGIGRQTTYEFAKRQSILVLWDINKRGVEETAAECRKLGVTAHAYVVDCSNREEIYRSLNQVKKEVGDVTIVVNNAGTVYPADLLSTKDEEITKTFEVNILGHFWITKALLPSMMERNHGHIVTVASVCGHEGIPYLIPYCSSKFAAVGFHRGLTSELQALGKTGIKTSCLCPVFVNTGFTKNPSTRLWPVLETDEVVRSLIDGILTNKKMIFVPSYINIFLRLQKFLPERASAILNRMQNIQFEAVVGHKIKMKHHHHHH
The IC50 is the midpoint of a concentration-inhibition curve. On to `Cc1ccc2c(c1)S(=O)(=O)c1cccc(C)c1C2NC(=O)c1ccc(C(F)(F)F)[nH]c1=O` (centres unmarked) [Compound 476, N-(1,6-dimethyl-10,10-dioxido-9H-thioxanthen-9-yl)-2-oxo-6-(trifluoromethyl)-1,2-dihydropyridine-3-carboxamide], for which the IC50 was over 10 µM. As for `O=C(NC1CCOc2cccnc21)c1ccc(C(F)(F)F)[nH]c1=O` (centres unmarked) [Compound 477, N-(3,4-dihydro-2H-pyrano[3,2-b]pyridin-4-yl)-2-oxo-6-(trifluoromethyl)-1,2-dihydropyridine-3-carboxamide], the IC50 is over 10 µM. Under `O=C(NC(c1ccccc1)c1cccc(CC(F)(F)F)c1)c1ccc(C(F)(F)F)[nH]c1=O` (centres unmarked) [Compound 478, 2-oxo-N-(phenyl(3-(2,2,2-trifluoroethyl)phenyl)methyl)-6-(trifluoromethyl)-1,2-dihydropyridine-3-carboxamide] stands 1.41 µM; under `O=C(NC1c2ccccc2Oc2ccc(CC(F)(F)F)cc21)c1ccc(C(F)(F)F)[nH]c1=O` (centres unmarked) [Compound 479, 2-oxo-N-(2-(2,2,2-trifluoroethyl)-9H-xanthen-9-yl)-6-(trifluoromethyl)-1,2-dihydropyridine-3-carboxamide], 0.26 µM. As to `O=C(NC1c2ccccc2Sc2ccc(CC(F)(F)F)cc21)c1ccc(C(F)(F)F)[nH]c1=O` (centres unmarked) [Compound 480, 2-oxo-N-(2-(2,2,2-trifluoroethyl)-9H-thioxanthen-9-yl)-6-(trifluoromethyl)-1,2-dihydropyridine-3-carboxamide], the IC50 amounted to 0.4 µM.

With `O=C(NC1c2ccccc2Oc2ccc(C3CNC3)cc21)c1ccc(C(F)(F)F)[nH]c1=O` (centres unmarked) [Compound 481, N-(2-(azetidin-3-yl)-9H-xanthen-9-yl)-2-oxo-6-(trifluoromethyl)-1,2-dihydropyridine-3-carboxamide], the IC50 was 1.42 µM. Consider `CN1CC(c2ccc3c(c2)C(NC(=O)c2ccc(C(F)(F)F)[nH]c2=O)c2ccccc2O3)C1` (centres unmarked) [Compound 482, N-(2-(1-methylazetidin-3-yl)-9H-xanthen-9-yl)-2-oxo-6-(trifluoromethyl)-1,2-dihydropyridine-3-carboxamide], for which the IC50 is 2.39 µM.

With `O=C(NC1c2ccccc2Oc2cc(C3CNC3)ccc21)c1ccc(C(F)(F)F)[nH]c1=O` (centres unmarked) [Compound 483, N-(3-(azetidin-3-yl)-9H-xanthen-9-yl)-2-oxo-6-(trifluoromethyl)-1,2-dihydropyridine-3-carboxamide], the IC50 was found to be 1.11 µM. For the compound `CN1CC(c2ccc3c(c2)Oc2ccccc2C3NC(=O)c2ccc(C(F)(F)F)[nH]c2=O)C1` (centres unmarked) [Compound 484, N-(3-(1-methylazetidin-3-yl)-9H-xanthen-9-yl)-2-oxo-6-(trifluoromethyl)-1,2-dihydropyridine-3-carboxamide], the IC50 came to 4.98 µM.

On to `Cc1ccc2c(c1)Oc1cc(C)ccc1C2NC(=O)c1ccc(C(C)C)[nH]c1=O` [Compound 485, N-(3,6-dimethyl-9H-xanthen-9-yl)-6-isopropyl-2-oxo-1,2-dihydropyridine-3-carboxamide], for which the IC50 is over 10 µM. For `Cc1ccc2c(c1)Oc1cc(C)ccc1C2NC(=O)c1ccc(C(C)(C)C)[nH]c1=O` [Compound 486, 6-(tert-butyl)-N-(3,6-dimethyl-9H-xanthen-9-yl)-2-oxo-1,2-dihydropyridine-3-carboxamide], the IC50 was over 10 µM. `Cc1ccc2c(c1)Oc1cc(C)ccc1C2NC(=O)c1ccc(C(C)(C)C)nc1Cl` [Compound 487, 6-(tert-butyl)-2-chloro-N-(3,6-dimethyl-9H-xanthen-9-yl)nicotinamide]: the IC50 is over 10 µM. As for `O=C(NC1c2ccccc2Oc2cc(C3COC3)ccc21)c1ccc(C(F)(F)F)[nH]c1=O` (centres unmarked) [Compound 488, N-(3-(oxetan-3-yl)-9H-xanthen-9-yl)-2-oxo-6-(trifluoromethyl)-1,2-dihydropyridine-3-carboxamide], the IC50 turned out to be 0.11 µM.

With `O=C(NC1c2ccccc2Oc2ccc(C3COC3)cc21)c1ccc(C(F)(F)F)[nH]c1=O` (centres unmarked) [Compound 489, N-(2-(oxetan-3-yl)-9H-xanthen-9-yl)-2-oxo-6-(trifluoromethyl)-1,2-dihydropyridine-3-carboxamide], the IC50 turned out to be 0.23 µM. Regarding `Cc1ccc(C(C(=O)Nc2ccc(C(F)(F)F)[nH]c2=O)c2ccc(C)cc2)cc1` [Compound 492, N-(2-oxo-6-(trifluoromethyl)-1,2-dihydropyridin-3-yl)-2,2-di-p-tolylacetamide], the IC50 is over 10 µM. Take `Cc1ccc2c(c1)S(=O)(=O)c1cc(C)ccc1C2NC(=O)c1cc(-c2ccncc2)c(C(F)(F)F)[nH]c1=O` [Compound 493, N-(3,6-dimethyl-10,10-dioxido-9H-thioxanthen-9-yl)-6-oxo-2-(trifluoromethyl)-1,6-dihydro-[3,4′-bipyridine]-5-carboxamide]: the IC50 stood at 0.09 µM. Under `Cc1ccc2c(c1)Oc1cc(C)ccc1C2NC(=O)c1cc(-c2cc[nH]c(=O)c2)c(C(F)(F)F)[nH]c1=O` [Compound 494, N-(3,6-dimethyl-9H-xanthen-9-yl)-2′,6-dioxo-2-(trifluoromethyl)-1,1′,2′,6-tetrahydro-[3,4′-bipyridine]-5-carboxamide] stands 0.02 µM. With `Cc1ccc2c(c1)Oc1cc(C)ccc1C2NC(=O)c1cc(-c2cccnc2)c(C(F)(F)F)[nH]c1=O` [Compound 496, N-(3,6-dimethyl-9H-xanthen-9-yl)-6-oxo-2-(trifluoromethyl)-1,6-dihydro-[3,3′-bipyridine]-5-carboxamide], the IC50 is 0.02 µM.

Consider `Cc1ccc2c(c1)Oc1cc(C)ccc1C2NC(=O)c1cc(-c2ccc(=O)[nH]c2)c(C(F)(F)F)[nH]c1=O` [Compound 497, N-(3,6-dimethyl-9H-xanthen-9-yl)-6,6′-dioxo-2-(trifluoromethyl)-1,1′,6,6′-tetrahydro-[3,3′-bipyridine]-5-carboxamide], for which the IC50 came out at 0.03 µM. In the case of `COc1cc(-c2cc(C(=O)NC3c4ccc(C)cc4Oc4cc(C)ccc43)c(=O)[nH]c2C(F)(F)F)ccn1` [Compound 498, N-(3,6-dimethyl-9H-xanthen-9-yl)-2′-methoxy-6-oxo-2-(trifluoromethyl)-1,6-dihydro-[3,4′-bipyridine]-5-carboxamide], the IC50 was determined as 0.02 µM. In the case of `Cc1ccc2c(c1)Oc1cccc(C)c1C2NC(=O)c1cc(Cc2ccccc2)c(C(F)(F)F)[nH]c1=O` (centres unmarked) [Compound 502, 5-benzyl-N-(1,6-dimethyl-9H-xanthen-9-yl)-2-oxo-6-(trifluoromethyl)-1,2-dihydropyridine-3-carboxamide], the IC50 turned out to be 0.26 µM. On to `Cc1ccc2c(c1)Oc1cccc(C)c1C2NC(=O)c1cc(-c2ccncc2)c(C(F)(F)F)[nH]c1=O` (centres unmarked) [Compound 503, N-(1,6-dimethyl-9H-xanthen-9-yl)-6-oxo-2-(trifluoromethyl)-1,6-dihydro-[3,4′-bipyridine]-5-carboxamide], for which the IC50 came out at 0.23 µM.

Take `Cc1ccc2c(c1)Oc1cc(C)ccc1C2NC(=O)c1cc(C2=CCCCC2)c(C(F)(F)F)[nH]c1=O` [Compound 505, 5-(cyclohex-1-en-1-yl)-N-(3,6-dimethyl-9H-xanthen-9-yl)-2-oxo-6-(trifluoromethyl)-1,2-dihydropyridine-3-carboxamide]: the IC50 was 0.08 µM.

Turning to `Cc1ccc2c(c1)S(=O)(=O)c1cc(C)ccc1C2NC(=O)c1cc(-c2ncccn2)c(C(F)(F)F)[nH]c1=O` [Compound 506, N-(3,6-dimethyl-10,10-dioxido-9H-thioxanthen-9-yl)-2-oxo-5-(pyrimidin-2-yl)-6-(trifluoromethyl)-1,2-dihydropyridine-3-carboxamide], the IC50 stood at 0.09 µM. In the case of `Cc1ccc2c(c1)Sc1cc(C)ccc1C2NC(=O)c1cc(-c2ncccn2)c(C(F)(F)F)[nH]c1=O` [Compound 507, N-(3,6-dimethyl-9H-thioxanthen-9-yl)-2-oxo-5-(pyrimidin-2-yl)-6-(trifluoromethyl)-1,2-dihydropyridine-3-carboxamide], the IC50 amounted to 0.04 µM.

On to `CCN1CCN(c2cc(C(=O)NC3c4ccc(C)cc4Oc4cc(C)ccc43)c(=O)[nH]c2C(F)(F)F)CC1` [Compound 512, N-(3,6-dimethyl-9H-xanthen-9-yl)-5-(4-ethylpiperazin-1-yl)-2-oxo-6-(trifluoromethyl)-1,2-dihydropyridine-3-carboxamide], for which the IC50 was found to be 0.09 µM. For `CC(C)(C)OC(=O)Nc1ccc(CSc2ncc(C(=O)NC3c4ccc(Cl)cc4Oc4cc(Cl)ccc43)c(=O)[nH]2)cc1` [Compound 513, tert-butyl (4-(((5-((3,6-dichloro-9H-xanthen-9-yl)carbamoyl)-6-oxo-1,6-dihydropyrimidin-2-yl)thio)methyl)phenyl)carbamate], the IC50 came out at 0.92 µM.

Take `Cc1ccc2c(c1)Oc1cc(C)ccc1C2NC(=O)c1cc(Oc2ccccc2)c(C(F)(F)F)[nH]c1=O` [Compound 514, N-(3,6-dimethyl-9H-xanthen-9-yl)-2-oxo-5-phenoxy-6-(trifluoromethyl)-1,2-dihydropyridine-3-carboxamide]: the IC50 was 0.02 µM. Consider `Cc1ccc2c(c1)Sc1cc(C)ccc1C2NC(=O)c1cc(C)c(C(F)(F)F)[nH]c1=O` [Compound 515, N-(3,6-dimethyl-9H-thioxanthen-9-yl)-5-methyl-2-oxo-6-(trifluoromethyl)-1,2-dihydropyridine-3-carboxamide], for which the IC50 was determined as 0.03 µM. For the compound `Cc1ccc2c(c1)Oc1cc(C)ccc1C2NC(=O)c1cc(C2=CCNCC2)c(C(F)(F)F)[nH]c1=O` [Compound 516, N-(3,6-dimethyl-9H-xanthen-9-yl)-6-oxo-2-(trifluoromethyl)-1,1′,2′,3′,6,6′-hexahydro-[3,4′-bipyridine]-5-carboxamide], the IC50 amounted to 0.2 µM. As to `O=C(NC1c2ccc(Cl)cc2Oc2cc(Cl)ccc21)c1cnc(COc2ccc(C(F)(F)F)cc2)[nH]c1=O` [Compound 517, N-(3,6-dichloro-9H-xanthen-9-yl)-6-oxo-2-((4-(trifluoromethyl)phenoxy)methyl)-1,6-dihydropyrimidine-5-carboxamide], the IC50 came to 0.57 µM.

Take `Cc1ccc2c(c1)NCCC2NC(=O)c1ccc(C(F)(F)F)[nH]c1=O` (centres unmarked) [Compound 518, N-(7-methyl-1,2,3,4-tetrahydroquinolin-4-yl)-2-oxo-6-(trifluoromethyl)-1,2-dihydropyridine-3-carboxamide]: the IC50 is 0.56 µM.
